Test results reported in US5216005A, “Immunosuppressive analogues and derivatives of succinylacetone” (priority 1990, dated 1993).

System: adjuvant induced arthritis
Assay: adjuvant induced arthritis in rats, overall arthritis score; intraarticular right paw, per kg: succinylacetone 325 μg, methyl ester 150 μg, 4-acetyl-5-oxohexanoate 560 μg
Format: in vivo, rat

CC(=O)CC(=O)CCC(=O)O [Succinylacetone, 4,6-dioxoheptanoic acid]
overall arthritis score (Exp. I (treated from same day), day 14): 0.6 ± 1.3 | overall arthritis score (Exp. I (treated from same day), day 16): 0.8 ± 1.8 | overall arthritis score (Exp. I (treated from same day), day 18): 1.4 ± 2.6 | overall arthritis score (Exp. I (treated from same day), day 20): 3 ± 5 | overall arthritis score (Exp. I (treated from same day), day 22): 3.8 ± 5 | overall arthritis score (Exp. I (treated from same day), day 24): 4 ± 3.9 | overall arthritis score (Exp. I (treated from same day), day 26): 5 ± 4.3 | overall arthritis score (Exp. II (treated from day 4), day 14): 3.2 ± 3.8 | overall arthritis score (Exp. II (treated from day 4), day 16): 3.2 ± 3.8 | overall arthritis score (Exp. II (treated from day 4), day 18): 4.8 ± 3.6 | overall arthritis score (Exp. II (treated from day 4), day 20): 7 ± 2.3 | overall arthritis score (Exp. II (treated from day 4), day 22): 6.2 ± 2.4 | overall arthritis score (Exp. II (treated from day 4), day 24): 6 ± 2.7 | overall arthritis score (Exp. II (treated from day 4), day 26): 7.8 ± 3 | overall arthritis score (Exp. III (treated from day 14), day 14): 2.0 ± 3.9 | overall arthritis score (Exp. III (treated from day 14), day 16): 2.0 ± 3.9 | overall arthritis score (Exp. III (treated from day 14), day 18): 2.0 ± 2.9 | overall arthritis score (Exp. III (treated from day 14), day 20): 2.4 ± 2.9 | overall arthritis score (Exp. III (treated from day 14), day 22): 4.0 ± 3.7 | overall arthritis score (Exp. III (treated from day 14), day 24): 2.8 ± 2.8 | overall arthritis score (Exp. III (treated from day 14), day 26): 3.4 ± 2.7 | effect on arthritis (comparison of treatment schedules, in words): also effective when administered 14 days subsequent to injection
